The test system of this assay is NF-κB signaling pathway. Description: Activation of NF-κB signaling pathway in IL-1β-stimulated chondrocytes (whole-genome sequencing, nuclear P65 western blot). It counts as cell-based, mouse. The method, then:
Mouse chondrocytes were obtained from 7-day-old C57BL/6 mice (Shanghai Slac laboratory animal Co., Ltd.), and the procedure was as follows: under aseptic surgical conditions, bilateral knee cartilages of C57 mice were carefully stripped and digested with 0.2% neutral collagenase (Serva, Germany) for 8 h; cell precipitates were obtained by centrifugation, and the cells were resuspended in modified Eagle medium (DMEM) (Gibco, USA) containing 10% FBS, inoculated in culture dishes, and cultured with high-sugar DMEM medium (containing 10% FBS, 100 U/mL penicillin and 100 mg/L streptomycin) at 37° C. in a 5% CO2 constant temperature incubator. The medium was changed for the first time at 48 h. […] The cells were collected by centrifugation and resuspended, and the concentration was adjusted for inoculation in culture dishes. The cells were subcultured by the above method, and the obtained cells were labeled as P1, P2, P3 generations, etc. P1 generation mouse chondrocytes cultured in Embodiment 1 were subjected to western blot analysis through operations including the following: • 1. Collecting of protein samples: The culture medium was sucked out, and the cells were washed twice with PBS at 4° C. and then dried. […] The protein concentration was determined by the BCA Protein Quantification Kit. […]
On the technique in general: A western blot detects proteins with antibodies after separation by electrophoresis.

For the compound `COC(=O)CCC(=O)C(=O)OC` [α-KG, dimethyl-α-ketoglutarate], the “expression of P65 in the NF-κB signaling pathway in the nucleus” value (western blot, IL-1β 0 min, 15 min, 30 min, 60 min, 7 mM α-KG) is recorded as “significantly inhibited”. Besides, the “expression of many genes in the NF-κB signaling pathway” value (whole-genome sequencing, IL-1β stimulation, α-KG complemented) is “suppressed”.

The record behind these values is patent publication US20240033237A1, “USE OF A-KETOGLUTARATE IN MANUFACTURE OF MEDICAMENT” (TONGJI UNIVERSITY, priority 2019, published 2024).
